Experiments:
[1] = tested on: green foxtail; assay: Test Example 4: herbicidal effect by soil treatment (Table 19, symbol G); type: in vivo, green foxtail (Setaria viridis); conditions: amount of applied herbicide 320 g/ha
Method in brief: (§1)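 Scoring uses the grading scale of an earlier test, three weeks post-application. Treatment consists of spraying a diluted emulsion formulation across the surface of sterilized diluvial soil in which seeds are buried near 1.5 cm deep; boxes are kept in a greenhouse between 25° C. and 30° C.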

[2] = tested on: lambsquarters; assay: Test Example 5: herbicidal effect by foliage application, plastic box (Table 20, symbol O); type: in vivo, lambsquarters (Chenopodium album); conditions: foliage application, 320 g/ha, three weeks after application
Method in brief: (§2)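 Post-emergence foliar test in sterilized diluvial soil. Compound applied as water-diluted emulsion at a predetermined rate to 14-day-old plants; evaluation at three weeks.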

[3] = tested on: redroot pigweed; assay: Test Example 5: herbicidal effect by foliage application, plastic box (Table 20, symbol N); type: in vivo, redroot pigweed (Amaranthus retroflexus); conditions: foliage application, 320 g/ha, three weeks after application
Method in brief: as §2

[4] = tested on: velvetleaf; assay: Test Example 5: herbicidal effect by foliage application, plastic box (Table 20, symbol M); type: in vivo, velvetleaf (Abutilon theophrasti); conditions: foliage application, 320 g/ha, three weeks after application
Method in brief: as §2

[5] = tested on: Japanese bulrush; assay: Test Example 1: herbicidal activity, application before weed generation under submerged conditions (Table 16, symbol B); type: in vivo, Japanese bulrush (Schoenoplectus juncoides); conditions: amount of applied herbicide 320 g/ha
Method in brief: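 Alluvial soil was flooded to 4 cm depth, weed seeds were sown mixed and 2.5-leaf rice seedlings were transplanted. On sowing day, the compound's emulsion, diluted in water to a set dose, was applied to the water surface. Plants grew at 25–30 °C and were scored 0–5 after three weeks.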

[6] = tested on: barnyard grass; assay: Test Example 5: herbicidal effect by foliage application, plastic box (Table 20, symbol H); type: in vivo, barnyard grass (Echinochloa crus-galli); conditions: foliage application, 320 g/ha, three weeks after application
Method in brief: as §2

[7] = tested on: southern crabgrass; assay: Test Example 4: herbicidal effect by soil treatment (Table 19, symbol F); type: in vivo, southern crabgrass (Digitaria ciliaris); conditions: amount of applied herbicide 320 g/ha
Method in brief: as §1

[8] = tested on: southern crabgrass; assay: Test Example 5: herbicidal effect by foliage application, plastic box (Table 20, symbol F); type: in vivo, southern crabgrass (Digitaria ciliaris); conditions: foliage application, 320 g/ha, three weeks after application
Method in brief: as §2

[9] = tested on: velvetleaf; assay: Test Example 4: herbicidal effect by soil treatment (Table 19, symbol M); type: in vivo, velvetleaf (Abutilon theophrasti); conditions: amount of applied herbicide 320 g/ha
Method in brief: as §1

[10] = tested on: late watergrass; assay: Test Example 1: herbicidal activity, application before weed generation under submerged conditions (Table 16, symbol A); type: in vivo, late watergrass (Echinochloa oryzicola); conditions: amount of applied herbicide 320 g/ha
Text: (§3) [Test Example 1] Herbicidal Activity Test by Application before Weed Generation under Submerged Conditions After alluvial soil was placed into 1/10000 are of Wagner pot, water was poured and mixed to form a submerged condition having a water depth of 4 cm. Seeds of late watergrass, Japanese bulrush, and oval-leafed pondweed were sowed in a mixed manner in the aforementioned pot, and then 2.5 leaf stage rice plant seedlings were transplanted thereto. On the day of sowing seeds, the emulsion agent of the compound of the present invention prepared according to Formulation Example 2 was diluted with water so as to achieve a predetermined herbicide amount, and the diluted emulsion agent was applied to the surface of the water. The pot was placed in a greenhouse at 25° C. to 30° C. for growth of the plants. Three weeks after the herbicide application, the effect of the herbicide on each plant was evaluated according to the following criteria. Evaluation Criteria 5: Herbicidal rate of 90% or more (almost completely withered) 4: Herbicidal rate of 70% or more and less than 90% 3: Herbicidal rate of 40% or more and less than 70% 2: Herbicidal rate of 20% or more and less than 40% 1: Herbicidal rate of 5% or more and less than 20% 0: Herbicidal rate of 5% or less (almost no effect)

[11] = tested on: oval-leafed pondweed; assay: Test Example 1: herbicidal activity, application before weed generation under submerged conditions (Table 16, symbol C); type: in vivo, oval-leafed pondweed (Monochoria vaginalis); conditions: amount of applied herbicide 320 g/ha
Text: as §3

[12] = tested on: redroot pigweed; assay: Test Example 4: herbicidal effect by soil treatment (Table 19, symbol N); type: in vivo, redroot pigweed (Amaranthus retroflexus); conditions: amount of applied herbicide 320 g/ha
Method in brief: as §1

[13] = tested on: barnyard grass; assay: Test Example 3: herbicidal effect by foliage application, Wagner pot (Table 18, symbol H); type: in vivo, barnyard grass (Echinochloa crus-galli); conditions: for herbicidal effect on barnyard grass (H): 320 g/ha
Method in brief: (§4)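 Plants were sown in alluvial soil held under 0.1–0.5 cm standing water and grown 14 days in a greenhouse at 25–30 °C. An emulsifiable formulation, water-diluted to the set dose, was then sprayed onto the foliage, and effects were scored three weeks later using previously defined criteria.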

[14] = tested on: rice flat sedge; assay: Test Example 3: herbicidal effect by foliage application, Wagner pot (Table 18, symbol E); type: in vivo, rice flat sedge (Cyperus iria); conditions: for herbicidal effect on rice flat sedge (E): 320 g/ha
Method in brief: as §4

[15] = tested on: green foxtail; assay: Test Example 5: herbicidal effect by foliage application, plastic box (Table 20, symbol G); type: in vivo, green foxtail (Setaria viridis); conditions: foliage application, 320 g/ha, three weeks after application
Method in brief: as §2

[16] = tested on: Chinese sprangletop; assay: Test Example 3: herbicidal effect by foliage application, Wagner pot (Table 18, symbol D); type: in vivo, chinese sprangletop (Leptochloa chinensis); conditions: for herbicidal effect on Chinese sprangletop (D): 320 g/ha
Method in brief: as §4

[17] = tested on: barnyard grass; assay: Test Example 4: herbicidal effect by soil treatment (Table 19, symbol H); type: in vivo, barnyard grass (Echinochloa crus-galli); conditions: amount of applied herbicide 320 g/ha
Method in brief: as §1

[18] = tested on: lambsquarters; assay: Test Example 4: herbicidal effect by soil treatment (Table 19, symbol O); type: in vivo, lambsquarters (Chenopodium album); conditions: amount of applied herbicide 320 g/ha
Method in brief: as §1

[19] = amount of applied herbicide 320 g/ha

Compound: Cc1nn(C)c(=O)c(-c2c(-c3ccc(OCC[S+](C)[O-])cc3)sc3ccc(F)cc23)c1O (centres unmarked) [2-443]
- herbicidal effect, G: green foxtail [1]: 5 (Herbicidal rate of 90% or more (almost completely withered))
- O: lambsquarters, herbicidal effect grade [2]: 5 (Herbicidal rate of 90% or more (almost completely withered))
- N: redroot pigweed, herbicidal effect grade [3]: 5 (Herbicidal rate of 90% or more (almost completely withered))
- M: velvetleaf, herbicidal effect grade [4]: 5 (Herbicidal rate of 90% or more (almost completely withered))
- Herbicidal effect, B: Japanese bulrush [5]: 0 (Herbicidal rate of 5% or less (almost no effect))
- H: barnyard grass, herbicidal effect grade [6]: 5 (Herbicidal rate of 90% or more (almost completely withered))
- herbicidal effect, F: southern crabgrass [7]: 5 (Herbicidal rate of 90% or more (almost completely withered))
- F: southern crabgrass, herbicidal effect grade [8]: 5 (Herbicidal rate of 90% or more (almost completely withered))
- herbicidal effect, M: velvetleaf [9]: 3 (Herbicidal rate of 40% or more and less than 70%)
- Herbicidal effect, A: late watergrass [10]: 3 (Herbicidal rate of 40% or more and less than 70%)
- Herbicidal effect, C: oval-leafed pondweed [11]: 0 (Herbicidal rate of 5% or less (almost no effect))
- herbicidal effect, N: redroot pigweed [12]: 5 (Herbicidal rate of 90% or more (almost completely withered))
- herbicidal effect on H: barnyard grass [13, 19]: 5 (Herbicidal rate of 90% or more (almost completely withered))
- herbicidal effect on E: rice flat sedge [14, 19]: 5 (Herbicidal rate of 90% or more (almost completely withered))
- G: green foxtail, herbicidal effect grade [15]: 5 (Herbicidal rate of 90% or more (almost completely withered))
- herbicidal effect on D: Chinese sprangletop [16, 19]: 4 (Herbicidal rate of 70% or more and less than 90%)
- herbicidal effect, H: barnyard grass [17]: 5 (Herbicidal rate of 90% or more (almost completely withered))
- herbicidal effect, O: lambsquarters [18]: 4 (Herbicidal rate of 70% or more and less than 90%)

Compound: Cc1nn(C)c(=O)c(-c2c(-c3ccc(Cl)cc3)sc3cc(F)c(F)cc23)c1OCc1ccccc1 [5-083]
- Herbicidal effect, B: Japanese bulrush [5]: 3 (Herbicidal rate of 40% or more and less than 70%)
- Herbicidal effect, A: late watergrass [10]: 0 (Herbicidal rate of 5% or less (almost no effect))
- Herbicidal effect, C: oval-leafed pondweed [11]: 0 (Herbicidal rate of 5% or less (almost no effect))
- herbicidal effect on barnyard grass (H) [13]: 1 (Herbicidal rate of 5% or more and less than 20%)
- herbicidal effect on rice flat sedge (E) [14]: 2 (Herbicidal rate of 20% or more and less than 40%)
- herbicidal effect on Chinese sprangletop (D) [16]: 0 (Herbicidal rate of 5% or less (almost no effect))

Compound: Cc1nn(C)c(=O)c(-c2c(-c3ccc(OC(F)(F)F)cc3)sc3cc(F)c(F)cc23)c1O [5-105]
- G: green foxtail, herbicidal effect grade [1]: 0 (Herbicidal rate of 5% or less (almost no effect))
- herbicidal effect on lambsquarters (O) [2]: 5 (Herbicidal rate of 90% or more (almost completely withered))
- herbicidal effect on velvetleaf (M) [4]: 4 (Herbicidal rate of 70% or more and less than 90%)
- Herbicidal effect, B: Japanese bulrush [5]: 0 (Herbicidal rate of 5% or less (almost no effect))
- herbicidal effect on barnyard grass (H) [6]: 5 (Herbicidal rate of 90% or more (almost completely withered))
- F: southern crabgrass, herbicidal effect grade [7]: 0 (Herbicidal rate of 5% or less (almost no effect))
- herbicidal effect on southern crabgrass (F) [8]: 4 (Herbicidal rate of 70% or more and less than 90%)
- M: velvetleaf, herbicidal effect grade [9]: 2 (Herbicidal rate of 20% or more and less than 40%)
- Herbicidal effect, A: late watergrass [10]: 2 (Herbicidal rate of 20% or more and less than 40%)
- Herbicidal effect, C: oval-leafed pondweed [11]: 0 (Herbicidal rate of 5% or less (almost no effect))
- N: redroot pigweed, herbicidal effect grade [12]: 3 (Herbicidal rate of 40% or more and less than 70%)
- herbicidal effect on barnyard grass (H) [13]: 5 (Herbicidal rate of 90% or more (almost completely withered))
- herbicidal effect on rice flat sedge (E) [14]: 0 (Herbicidal rate of 5% or less (almost no effect))
- herbicidal effect on green foxtail (G) [15]: 5 (Herbicidal rate of 90% or more (almost completely withered))
- herbicidal effect on Chinese sprangletop (D) [16]: 0 (Herbicidal rate of 5% or less (almost no effect))
- H: barnyard grass, herbicidal effect grade [17]: 0 (Herbicidal rate of 5% or less (almost no effect))
- O: lambsquarters, herbicidal effect grade [18]: 4 (Herbicidal rate of 70% or more and less than 90%)

Reference: patent US20230085307A1, “PYRIDAZINONE COMPOUND AND HERBICIDE” (NISSAN CHEMICAL CORPORATION, priority 2019, published 2023)
